In brackets after ≈: the same amount, converted by molar mass.
What was measured:
[1] = Kinetic solubility determination in PBS pH 7.4; assay type: physicochemical; details: phosphate buffered saline, aqueous buffer, kinetic from dmso stock, PBS pH 7.4, 300 µM nominal, 2 hours at 25°C
Method: (§1) Section S5: In vitro and in vivo studies
(§2) These studies were performed by Contract Research Organisation (CRO) Pharmaron. The methodology provided within the ESI is published within the express permission of this organisation.
(§3) The percentage of a compound recovered during the analysis process should be 100 %; any deviation from this value indicates experimental limitations such as unintended potential non-specific binding events to experimental equipment, solubility issues, etc.
In vitro Absorption, Distribution and Metabolism studies methods: […]
The ionisation
Kinetic Solubility Determination in PBS pH 7.4:
The stock solutions of test and control compounds were prepared in DMSO at 10 mM. From this a 300 µM solution was prepared in duplicate in 100 mM Phosphate Buffered Saline (PBS, pH 7.4 ± 0.1). These solutions were then shaken at 1100rpm for 2 hours at 25°C. Following incubation, the samples were filtered using a vacuum manifold. The filtrate was analysed and quantified against a standard of known concentration using liquid chromatography mass -spectrometry (LC -MS/MS). […]
coupled to a Sciex 4500 mass spectrometer (AB Inc., Illinois) Separation of compounds was achieved using an XSelect HSS T3 column (2.5µm, 50 x 2.1 mm) (Waters Ltd., Wilmslow) at a temperature of 40°C and a binary mobile phase gradient at a flow rate of 0.8 mL/min. […]

[2] = Protein binding in human plasma by equilibrium dialysis; assay type: in vitro ADME
Method: as §1, §2, §3
In vitro Absorption, Distribution and Metabolism studies methods:
Protein Binding measurements in human plasma by using equilibrium dialysis:
The fraction unbound in human plasma (P-KB, Ltd People’s hospital of Shandong) was measured using 96-well Equilibrium Dialysis Plate (HTDialysis LLC, Gales Ferry, CT). Human plasma containing 5 µM test compound was dialysed against dialysis buffer (PBS, pH 7.4) with initial samples taken to allow for assessment of plasma stability and recovery before the plate was incubated for 6 hours at 37°C at 5%
CO2. Samples were removed at 6 hours, and all samples were matrix matched and quenched with acetonitrile containing internal standard. Samples were centrifuged at 3,220g for 30 minutes to precipitate protein and enable sampling of supernatant prior to appropr iate dilution for liquid chromatography mass -spectrometry (LC -MS/MS) analysis.
Samples were analysed using a Shimadzu Nexera LC Binary Gradient LC -30AD (Shimadzu Inc, Kyoto), coupled to a Sciex 6500+ (AB Inc., Illinois). Separation was achieved using a XSelect HSS T3 (2.5µm, 2.1 x 50 mm) (Waters Ltd., Wilmslow) column at a temperature of 40°C and a binary mobile phase gradient at a flow rate of 0.8 mL/min. Initial LC conditions comprised of 95% solvent A (0.1% formic acid in water), 5% solvent B (0.1% formic acid in acetonitrile); this was ramped to 98% B at 0.5 min, held for 0.4 min and then immediately returned to initial conditions. Sample analysis was by electrospray ionisation in combined with multiple reaction monitoring in positive ionisation mode. The ionisation […]

**Q.** With O=C(O)CNc1c(Nc2ccc(C(F)(F)F)cc2)c(=O)c1=O [SSA 5] as the compound, how does the solubility at 2 h [1] read?
**A.** 273 µM (≈ 85.8 µg/mL)

**Q.** What about the “% Stability” value ([2]; human plasma, 6 hours) of the same compound?
**A.** 99.5%

**Q.** What about the recovery at 6 h, 5 µM ([2]; human, plasma, pH 7.4, SSA recovered from the assay after 6 hours) of the same compound?
**A.** 102%

**Q.** And the fraction unbound at 6 h, 5 µM ([2]; pH 7.4, human plasma proteins, 5 µM, 6 hours incubation at 37 °C, read-out: % Bound (converted))?
**A.** 0.076
